According to US11053204B2, “Pyrimidinyloxy benzene derivatives as herbicides” (FMC Corporation, priority 2015, dated 2021):

Legend:
Experiment in all cases: Test C postemergence, plant response rating
Format in all cases: in vivo
corn (Zea mays) = details: Zea mays, post-emergence
How it was run: (§1)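 Greenhouse plants rated visually against untreated controls 13–15 d after treatment, scale 0 = no effect to 100 = complete control. Postemergence sprays went onto potted plants 2–18 cm tall (1–4 leaves); preemergence sprays onto soil freshly sown in loam–sand or silt loam, chemicals formulated in non-phytotoxic solvent with surfactant.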

[1] = system: velvetleaf (Abutilon theophrasti); details: Abutilon theophrasti, post-emergence
How it was run: as §1

[2] = system: wheat (winter wheat, Triticum aestivum); details: Triticum aestivum, post-emergence
How it was run: as §1

[3] = system: oilseed rape (Brassica napus); details: Brassica napus, post-emergence
How it was run: as §1

[4] = system: lambsquarters (Chenopodium album); details: Chenopodium album, post-emergence
How it was run: as §1

[5] = system: morningglory (Ipomoea coccinea); details: Ipomoea, post-emergence
How it was run: as §1

soybean (Glycine max) = details: Glycine max, post-emergence
How it was run: as §1

[6] = system: nutsedge, yellow (yellow nutsedge, Cyperus esculentus); details: Cyperus, post-emergence
How it was run: as §1

[7] = system: oat, wild (wild oat Avena fatua); details: Avena fatua, post-emergence
How it was run: as §1

[8] = system: chickweed (common chickweed, Stellaria media); details: Stellaria media, post-emergence
How it was run: as §1

[9] = system: waterhemp (common waterhemp, Amaranthus rudis); details: for Plant response rating, Waterhemp: scale 0 to 100; for Waterhemp plant response rating: scale 0 to 100 (0 no effect, 100 complete control)
How it was run: as §1

[10] = system: ragweed (common ragweed, Ambrosia elatior); details: Ambrosia artemisiifolia, post-emergence
How it was run: as §1

[11] = system: blackgrass (Alopecurus myosuroides); details: Alopecurus myosuroides, post-emergence
How it was run: as §1

[12] = system: galium (catchweed bedstraw, Galium aparine); details: Galium, post-emergence
How it was run: as §1

[13] = system: foxtail, giant (giant foxtail, Setaria faberii); details: Setaria faberi, post-emergence
How it was run: as §1

kochia (Kochia scoparia) = details: Bassia scoparia, post-emergence
How it was run: as §1

[14] = 62 g ai/ha, scale 0 to 100 (0 no effect, 100 complete control)
[15] = 125 g ai/ha, scale 0 to 100 (0 no effect, 100 complete control)

O=C(OCC(F)(F)C(F)(F)F)c1c(Br)cccc1Oc1ncc(Cl)cn1 [Compound 23, 2,2,3,3,3-pentafluoropropyl 2-bromo-6-[(5-chloro-2-pyrimidinyl)oxy]benzoate]
Corn plant response rating (crop injury, 0 = no effect, 100 = complete kill) at 16 g/ha (corn (Zea mays); 16 g ai/ha, scale 0 to 100): 5%
Corn plant response rating (crop injury, 0 = no effect, 100 = complete kill) at 31 g/ha (corn (Zea mays); 31 g ai/ha, scale 0 to 100): 5%
plant injury at 62 g/ha (corn (Zea mays); [14]): 5%
plant injury at 125 g/ha (corn (Zea mays); [15]): 10%
pest or weed control at 16 g/ha ([1]; 16 g ai/ha, scale 0 to 100): 10%
pest or weed control at 31 g/ha ([1]; 31 g ai/ha, scale 0 to 100): 35%
pest or weed control at 62 g/ha ([1]; 62 g ai/ha, scale 0 to 100 (0 no effect, 100 complete control), read-out: Velvetleaf plant response rating): 35%
pest or weed control at 125 g/ha [1, 15]: 40%
plant injury at 16 g/ha ([2]; 16 g ai/ha, scale 0 to 100): 0%
plant injury at 31 g/ha ([2]; 31 g ai/ha, scale 0 to 100): 0%
plant injury at 62 g/ha ([2]; 62 g ai/ha, scale 0 to 100 (0 no effect, 100 complete control), read-out: Wheat plant response rating): 0%
plant injury at 125 g/ha [2, 15]: 0%
plant injury at 16 g/ha ([3]; 16 g ai/ha, scale 0 to 100): 5%
plant injury at 31 g/ha ([3]; 31 g ai/ha, scale 0 to 100): 5%
plant injury at 62 g/ha [3, 14]: 50%
plant injury at 125 g/ha [3, 15]: 35%
pest or weed control at 16 g/ha ([4]; 16 g ai/ha, scale 0 to 100): 25%
pest or weed control at 31 g/ha ([4]; 31 g ai/ha, scale 0 to 100): 55%
pest or weed control at 62 g/ha [4, 14]: 65%
pest or weed control at 125 g/ha [4, 15]: 80%
pest or weed control at 16 g/ha ([5]; 16 g ai/ha, scale 0 to 100): 10%
pest or weed control at 31 g/ha ([5]; 31 g ai/ha, scale 0 to 100): 55%
pest or weed control at 62 g/ha [5, 14]: 60%
pest or weed control at 125 g/ha [5, 15]: 35%
plant injury at 16 g/ha (soybean (Glycine max); 16 g ai/ha, scale 0 to 100): 20%
plant injury at 31 g/ha (soybean (Glycine max); 31 g ai/ha, scale 0 to 100): 30%
plant injury at 62 g/ha (soybean (Glycine max); [14]): 70%
plant injury at 125 g/ha (soybean (Glycine max); [15]): 35%
pest or weed control at 16 g/ha ([6]; 16 g ai/ha, scale 0 to 100): 0%
pest or weed control at 31 g/ha ([6]; 31 g ai/ha, scale 0 to 100): 0%
pest or weed control at 62 g/ha [6, 14]: 5%
pest or weed control at 125 g/ha [6, 15]: 10%
pest or weed control at 16 g/ha ([7]; 16 g ai/ha, scale 0 to 100): 5%
pest or weed control at 31 g/ha ([7]; 31 g ai/ha, scale 0 to 100): 5%
pest or weed control at 62 g/ha [7, 14]: 10%
pest or weed control at 125 g/ha [7, 15]: 5%
pest or weed control at 16 g/ha ([8]; 16 g ai/ha, scale 0 to 100): 5%
pest or weed control at 31 g/ha ([8]; 31 g ai/ha, scale 0 to 100): 50%
pest or weed control at 62 g/ha [8, 14]: 50%
pest or weed control at 125 g/ha [8, 15]: 85%
Plant response rating, Waterhemp ([9]; 16 g ai/ha): 80
Plant response rating, Waterhemp ([9]; 31 g ai/ha): 90
Waterhemp plant response rating ([9]; 62 g ai/ha): 85
Waterhemp plant response rating ([9]; 125 g ai/ha): 95
pest or weed control at 16 g/ha ([10]; 16 g ai/ha, scale 0 to 100): 15%
pest or weed control at 31 g/ha ([10]; 31 g ai/ha, scale 0 to 100): 35%
pest or weed control at 62 g/ha [10, 14]: 40%
pest or weed control at 125 g/ha [10, 15]: 50%
pest or weed control at 16 g/ha ([11]; 16 g ai/ha, scale 0 to 100): 0%
pest or weed control at 31 g/ha ([11]; 31 g ai/ha, scale 0 to 100): 5%
pest or weed control at 62 g/ha [11, 14]: 15%
pest or weed control at 125 g/ha [11, 15]: 20%
pest or weed control at 16 g/ha ([12]; 16 g ai/ha, scale 0 to 100): 50%
pest or weed control at 31 g/ha ([12]; 31 g ai/ha, scale 0 to 100): 55%
pest or weed control at 62 g/ha [12, 14]: 55%
pest or weed control at 125 g/ha [12, 15]: 80%
pest or weed control at 16 g/ha ([13]; 16 g ai/ha, scale 0 to 100): 10%
pest or weed control at 31 g/ha ([13]; 31 g ai/ha, scale 0 to 100): 35%
pest or weed control at 62 g/ha [13, 14]: 25%
pest or weed control at 125 g/ha [13, 15]: 30%
pest or weed control at 16 g/ha (kochia (Kochia scoparia); 16 g ai/ha, scale 0 to 100): 5%
pest or weed control at 31 g/ha (kochia (Kochia scoparia); 31 g ai/ha, scale 0 to 100): 50%
pest or weed control at 62 g/ha (kochia (Kochia scoparia); [14]): 55%
pest or weed control at 125 g/ha (kochia (Kochia scoparia); [15]): 85%
